Laboratory results taken from patent US20230121313A1 (priority 2019, published 2023).

Columns and labels:
[1] = system: patients with treatment-resistant depression (TRD); assay: BPRS positive symptom subscale, phase 2 dose-response study in TRD; format: in vivo, human
Experimental: (§1) Adverse events were monitored throughout the study. Other safety assessments (i.e., laboratory tests, vital signs, physical examination) were performed at pre-specified time points. Vital signs, the Clinician Administered Dissociative States Scale (CADSS; Bremner, “Measurement of dissociative states with the clinician-administered dissociative states scale (CADSS)”, J. Traumatic Stress, 1998, 11(1):125-136), and the 4-item positive symptom subscale from the Brief Psychiatric Rating Scale (BPRS; Overall, “The Brief Psychiatric Rating Scale. Psychological Reports”, 1962, 10:799-812) were assessed pre-dose, at 40 minutes, and 2 hours post-dose.

adult subjects with TRD = conditions: in vivo
Experimental: Blood pressure and pulse/heart rate measurements were assessed supine with a completely automated device. Manual techniques were used only if an automated device is not available. Blood pressure and pulse/heart rate measurements were preceded by at least 5 minutes of rest in a quiet setting without distractions (e.g., television, cell phones).
Descriptive statistics of temperature, pulse/heart rate, respiratory rate, pulse oximetry, and blood pressure (systolic and diastolic) (supine) values and changes from baseline were summarized at each scheduled time point. The percentage of subjects with values beyond clinically important limits were summarized.

[2] = Pharmacokinetics of esketamine nasal spray, data assembled from 14 Phase 1 studies (Example 10); conditions: human, plasma, inhaled or intranasal
Experimental: The data herein was assembled from 14 Phase 1 studies; each Phase 1 study was performed similarly to the study outlined in Example 9 in which the PK of esketamine was assessed.

[3] = system: patients with treatment-resistant depression (TRD); assay: CADSS, phase 2 dose-response study in TRD; format: in vivo, human
Experimental: as §1

[4] = Pharmacokinetics of intranasal esketamine 28, 56, 84 mg in healthy subjects (Example 9); conditions: for AUC(0-inf) / AUC(0-t) / Cmax / half-life / Tmax: both, human, plasma; for Tmax: healthy subjects
Experimental: This was an open-label, single-center study. The subjects were healthy Caucasian men and women, 20 to 55 years of age, inclusive. […] The solution consisted of:
Pharmacokinetic blood samples for measurement of esketamine and noresketamine concentrations in plasma were collected from predose until up to 24 hours after each intranasal esketamine regimen on Day 1 of each period.
Blood samples (4 mL each) for determination of esketamine and noresketamine plasma concentrations were collected into the appropriate collection tube (e.g., Vacutainer®) at timepoints 0.00, 0.12, 0.20, 0.37, 0.53, 0.67, 0.83, 1.00, 1.25, 1.50, 2.00, 3.00, 4.00, 6.00, 9.00, 12.00, 18.00, and 24.00 h. The total amount of blood to be drawn for clinical laboratory tests and PK evaluations is approximately 327 mL.
Plasma samples were analyzed for esketamine and noresketamine concentrations using the validated, specific and sensitive liquid chromatography coupled to tandem mass spectrometry (LC-MS/MS) achiral method of Example 8.
Serial PK blood samples (4 mL each) were collected for a 24-hour period from each subject (Periods 1, 2, and 3).
The following key parameters of esketamine and noresketamine in plasma were calculated using noncompartmental methods and actual sampling times: Cmax, tmax, AUClast, AUC∞, t1/2,λ, and λz.

Structure (SMILES): CN[C@]1(c2ccccc2Cl)CCCCC1=O [esketamine, (S)-2-(2-chlorophenyl)-2-(methylamino)cyclohexanone]
- Symptoms suggestive of psychosis (BPRS-positive assessment) [1]: No participant manifested symptoms suggestive of psychosis
- Maximum mean increase in diastolic BP (across all dosing days) (adult subjects with TRD): 8.1
- Transient blood pressure increases: returned to normal range at (adult subjects with TRD): 90 min
- Transient blood pressure increases: time of peak post dose (adult subjects with TRD): approximately 40 minutes
- AUC(0-t) ([2]; 28 mg): 128 to 183 ng·h/mL
- Cmax ([2]; 28 mg): 49.7 to 70.5 ng/mL
- half-life ([2]; 28 mg, Terminal t1/2, young adult subjects, single dose nasal spray 28 mg, range across studies): 435 to 990 min
- Tmax ([2]; 28 mg, Tmax, young adult subjects, single dose nasal spray 28 mg, range of median values): 19.8 to 40.2 min
- Tmax ([2]; 28 mg, tmax typically observed after the first nasal spray, 28 mg): 20 to 40 min
- AUC(0-t) ([2]; 56 mg): 216 to 317 ng·h/mL
- Cmax ([2]; 56 mg): 71.8 to 117 ng/mL
- half-life ([2]; 56 mg, Terminal t1/2, young adult subjects, single dose nasal spray 56 mg, range across studies): 408 to 590 min
- Tmax ([2]; 56 mg, Tmax, young adult subjects, single dose nasal spray 56 mg, range of median values): 30 to 46.2 min
- Tmax ([2]; 56 mg, tmax typically observed after the first nasal spray, 56 mg): 30 to 45 min
- AUC(0-t) ([2]; 84 mg): 310 to 489 ng·h/mL
- Cmax ([2]; 84 mg): 95 to 164 ng/mL
- half-life ([2]; 84 mg, Terminal t1/2, young adult subjects, single dose nasal spray 84 mg, range across studies): 396 to 720 min
- Tmax ([2]; 84 mg, Tmax, young adult subjects, single dose nasal spray 84 mg, range of median values): 31.8 to 49.8 min
- Tmax ([2]; 84 mg, tmax typically observed after the first nasal spray, 84 mg): 30 to 50 min
- half-life ([2]; Mean terminal t1/2, range, nasal administration): 420 to 720 min
- half-life ([2]; Median terminal t1/2, nasal administration): 642 min
- CADSS perceptual changes/dissociative symptoms resolved by [3]: ≤ 2 h
- CADSS perceptual changes/dissociative symptoms: time of peak [3]: 30 to 40 min
- AUC(0-inf) ([4]; inhaled or intranasal, 28 mg): 136 ng·h/mL
- AUC(0-t) ([4]; inhaled or intranasal, 28 mg): 128 ng·h/mL
- Cmax ([4]; inhaled or intranasal, 28 mg): 49.7 ng/mL
- half-life ([4]; inhaled or intranasal, 28 mg): 435 min
- Tmax ([4]; inhaled or intranasal, 28 mg, tmax, esketamine in plasma, single intranasal 28 mg (Treatment A), median): 40.2 min
- AUC(0-inf) ([4]; inhaled or intranasal, 56 mg): 222 ng·h/mL
- AUC(0-t) ([4]; inhaled or intranasal, 56 mg): 216 ng·h/mL
- Cmax ([4]; inhaled or intranasal, 56 mg): 74.1 ng/mL
- half-life ([4]; inhaled or intranasal, 56 mg): 435 min
- Tmax ([4]; inhaled or intranasal, 56 mg, tmax, esketamine in plasma, single intranasal 56 mg (Treatment B), median): 40.2 min
- AUC(0-inf) ([4]; inhaled or intranasal, 84 mg): 329 ng·h/mL
- AUC(0-t) ([4]; inhaled or intranasal, 84 mg): 310 ng·h/mL
- Cmax ([4]; inhaled or intranasal, 84 mg): 103 ng/mL
- half-life ([4]; inhaled or intranasal, 84 mg): 427 min
- Tmax ([4]; inhaled or intranasal, 84 mg, Median tmax of esketamine, range across regimens, intranasal 28, 56, 84 mg): 40.2 to 49.8 min
- Tmax ([4]; inhaled or intranasal, 84 mg, tmax, esketamine in plasma, single intranasal 84 mg (Treatment C), median): 49.8 min
- half-life ([4]; other: intranasal, 84 mg): 427 to 435 min
- AUC (AUClast and AUC∞) variability ([4]; esketamine in plasma): 25.0% to 30.4
- Cmax variability (percent coefficient of variation) across the 3 treatment groups ([4]; esketamine in plasma): 35.7% to 36.7
